Biological target: HSP27 (Homo sapiens, UniProt P04792)
Assay: Aggregation assay: HSP27 chaperone activity on heat-induced aggregation of citrate synthase
Type: biochemical
Settings: compound 10 μM; 1.44 μM CS, 481 nM HSP27, 43° C., 500 nm
Description: To test how small molecules affect the chaperone activity of HSP27, misfolding and aggregation of citrate synthase (CS), a well-known in vitro client protein of HSP27, was measured. Citrate synthase misfolds and aggregates when exposed to heat shock at 43° C. This heat denaturation is prevented or delayed in the presence of HSP27 (CS+HSP27) (Jakob et al. (1993)). […] The samples were incubated at 43° C. and the aggregation behavior of CS was monitored in a spectrometer (PerkinElmer LS55) at a wavelength of 500 nm. Substances inhibiting HSP27's chaperone activity lead to continued denaturation of the client protein and its aggregation in solution. This inhibition correlates with the strength of the interaction between HSP27 and the test substance, which is related to its binding efficiency.
In the reference experiment BVDU (CS+HSP27+BVDU) was tested at a concentration of 750 μM as previously described (Heinrich et al. (2016)).
The compounds according to the invention were tested at a concentration of 10 μM.

Chain of HSP27 (P04792 whole entry): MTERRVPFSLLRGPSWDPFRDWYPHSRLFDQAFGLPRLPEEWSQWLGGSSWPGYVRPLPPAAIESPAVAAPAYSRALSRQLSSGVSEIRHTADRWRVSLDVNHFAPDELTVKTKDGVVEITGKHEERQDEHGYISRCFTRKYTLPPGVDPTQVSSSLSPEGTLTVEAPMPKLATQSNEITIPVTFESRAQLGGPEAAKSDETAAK

aggregation value related to the value from reference experiment (CS + HSP27 + BVDU), which was set at 1.0	SMILES
0.79	COc1ccc(-c2cccc(CC(=O)Nc3ccc(-n4cc(Cl)c(=O)[nH]c4=O)cc3)c2)cc1Cl [Compound 30, N-(4-(5-chloro-2,4-dioxo-3,4-dihydro-pyrimidin-1(2H)-yl)phenyl)-2-(3′-chloro-4′-methoxy-[1,1′-biphenyl]-3-yl)acetamide]
0.78	COc1ccc(-c2cccc(CC(=O)Nc3ccc(-n4cc(C)c(=O)[nH]c4=O)cc3)c2)cc1 [Compound 31, 2-(4′-methoxy-[1,1′-biphenyl]-3-yl)-N-(4-(5-methyl-2,4-dioxo-3,4-dihydro-pyrimidin-1(2H)-yl)phenyl) acetamide]
0.76	O=C(Cc1cccc(-c2ccc(Cl)c(Cl)c2)c1)Nc1ccc(-n2ccc(=O)[nH]c2=O)cc1F [Compound 32, 2-(3′,4′-dichloro-[1,1′-biphenyl]-3-yl)-N-(4-(2,4-dioxo-3,4-dihydro-pyrimidin-1(2H)-yl)-2-fluoro-phenyl)acetamide]
0.69	Cc1cccc(-c2cccc(CC(=O)Nc3ccc(-n4ccc(=O)[nH]c4=O)cc3)c2)c1 [Compound 33, N-(4-(2,4-dioxo-3,4-dihydro-pyrimidin-1(2H)-yl)phenyl)-2-(3′-methyl-[1,1′-biphenyl]-3-yl) acetamide]
1.8	O=C(Nc1ccc(Cn2ccc(=O)[nH]c2=O)cc1)c1cccc(-c2ccc(Cl)c(Cl)c2)c1 [Compound 34, 3′,4′-dichloro-N-(4-((2,4-dioxo-3,4-dihydro-pyrimidin-1(2H)-yl)methyl)phenyl)-[1,1′-biphenyl]-3-carboxamide]
0.91	COc1ccc(-c2cccc(C(=O)Nc3ccc(Cn4ccc(=O)[nH]c4=O)cc3)c2)cc1Cl [Compound 37, 3′-chloro-N-(4-((2,4-dioxo-3,4-dihydro-pyrimidin-1(2H)-yl)methyl)phenyl)-4′-methoxy-[1,1′-biphenyl]-3-carboxamide]
0.79	O=C(Nc1ccc(-n2ccc(=O)[nH]c2=O)cc1)c1cccc(-c2cccc(Cl)c2)c1 [Compound 43, 3′-chloro-N-(4-(2,4-dioxo-3,4-dihydro-pyrimidin-1(2H)-yl)phenyl)-[1,1′-biphenyl]-3-carboxamide]
0.83	COc1ccc(-c2cccc(C(=O)Nc3ccc(-n4ccc(=O)[nH]c4=O)cc3)c2)cc1Cl [Compound 44, 3′-chloro-N-(4-(2,4-dioxo-3,4-dihydro-pyrimidin-1(2H)-yl)phenyl)-4′-methoxy-[1,1′-biphenyl]-3-carboxamide]
0.75	COc1cccc(-c2cccc(C(=O)Nc3ccc(-n4cc(C)c(=O)[nH]c4=O)cc3)c2)c1 [Compound 46, 3′-methoxy-N-(4-(5-methyl-2,4-dioxo-3,4-dihydro-pyrimidin-1(2H)-yl)phenyl)-[1,1′-biphenyl]-3-carboxamide]
1.46	Cc1cn(-c2ccc(NC(=O)c3cccc(-c4cccc(OC(F)(F)F)c4)c3)cc2)c(=O)[nH]c1=O [Compound 47, N-(4-(5-methyl-2,4-dioxo-3,4-dihydro-pyrimidin-1(2H)-yl)phenyl)-3′-(trifluoro-methoxy)-[1,1′-biphenyl]-3-carboxamide]
1.16	Cc1ccc(-c2cccc(C(=O)Nc3ccc(-n4cc(C)c(=O)[nH]c4=O)cc3)c2)cc1Cl [Compound 49, 3′-chloro-4′-methyl-N-(4-(5-methyl-2,4-dioxo-3,4-dihydro-pyrimidin-1(2H)-yl)phenyl)-[1,1′-biphenyl]-3-carboxamide]
0.73	Cc1ccc(-c2cccc(C(=O)Nc3ccc(-n4ccc(=O)[nH]c4=O)cc3)c2)cc1Cl [Compound 50, 3′-chloro-N-(4-(2,4-dioxo-3,4-dihydro-pyrimidin-1(2H)-yl)phenyl)-4′-methyl-[1,1′-biphenyl]-3-carboxamide]
1.42	O=C(NCc1cn(-c2ccc(-n3ccc(=O)[nH]c3=O)cc2)nn1)c1ccc(Cl)c(Cl)c1 [Compound 54, 3,4-Dichloro-N-((1-(4-(2,4-dioxo-3,4-dihydropyrimidin-1(2H)-yl)phenyl)-1H-1,2,3-triazol-4-yl)methyl)benzamide]

More lines, now with the values behind:

SMILES	aggregation value related to the value from reference experiment (CS + HSP27 + BVDU), which was set at 1.0
O=C(Nc1ccc(Cn2ccc(=O)[nH]c2=O)cc1)c1cccc(-c2cccc(OC(F)(F)F)c2)c1 [Compound 35, N-(4-((2,4-dioxo-3,4-dihydro-pyrimidin-1(2H)-yl)methyl)phenyl)-3′-(trifluoro-methoxy)-[1,1′-biphenyl]-3-carboxamide]	1.55
O=C(Nc1ccc(Cn2ccc(=O)[nH]c2=O)cc1)c1cccc(-c2cccc(Cl)c2)c1 [Compound 36, 3′-chloro-N-(4-((2,4-dioxo-3,4-dihydro-pyrimidin-1(2H)-yl)methyl)phenyl)-[1,1′-biphenyl]-3-carboxamide]	1.23
O=C(Cc1cccc(-c2cccc(OC(F)(F)F)c2)c1)Nc1cccc(-n2ccc(=O)[nH]c2=O)c1 [Compound 39, N-(3-(2,4-dioxo-3,4-dihydro-pyrimidin-1(2H)-yl)phenyl)-2-(3′-(trifluoro-methoxy)-[1,1′-biphenyl]-3-yl) acetamide]	1.21
O=C(Cc1cccc(-c2ccc(Cl)c(Cl)c2)c1)Nc1cccc(-n2ccc(=O)[nH]c2=O)c1 [Compound 40, 2-(3′,4′-dichloro-[1,1′-biphenyl]-3-yl)-N-(3-(2,4-dioxo-3,4-dihydro-pyrimidin-1(2H)-yl)phenyl) acetamide]	1.8
COc1ccc(-c2cccc(CC(=O)Nc3cccc(-n4ccc(=O)[nH]c4=O)c3)c2)cc1Cl [Compound 41, 2-(3′-chloro-4′-methoxy-[1,1′-biphenyl]-3-yl)-N-(3-(2,4-dioxo-3,4-dihydro-pyrimidin-1(2H)-yl)phenyl) acetamide]	1.24
Cc1cccc(-c2cccc(C(=O)Nc3ccc(-n4ccc(=O)[nH]c4=O)cc3)c2)c1 [Compound 42, N-(4-(2,4-dioxo-3,4-dihydro-pyrimidin-1(2H)-yl)phenyl)-3′-methyl-[1,1′-biphenyl]-3-carboxamide]	0.66
COc1ccc(-c2cccc(C(=O)Nc3ccc(-n4cc(C)c(=O)[nH]c4=O)cc3)c2)cc1Cl [Compound 45, 3′-chloro-4′-methoxy-N-(4-(5-methyl-2,4-dioxo-3,4-dihydro-pyrimidin-1(2H)-yl)phenyl)-[1,1′-biphenyl]-3-carboxamide]	0.88
O=C(Nc1ccc(-n2cc(Cl)c(=O)[nH]c2=O)cc1)c1cccc(-c2cccc(OC(F)(F)F)c2)c1 [Compound 48, N-(4-(5-chloro-2,4-dioxo-3,4-dihydro-pyrimidin-1(2H)-yl)phenyl)-3′-(trifluoro-methoxy)-[1,1′-biphenyl]-3-carboxamide]	0.7
O=C(Cc1cccc(-c2ccc(Cl)c(Cl)c2)c1)Nc1ccc(-n2cc(Cl)c(=O)[nH]c2=O)cc1 [Compound 51, N-(4-(5-chloro-2,4-dioxo-3,4-dihydro-pyrimidin-1(2H)-yl)phenyl)-2-(3′,4′-dichloro-[1,1′-biphenyl]-3-yl)acetamide]	0.73
O=C(Cc1cn(-c2ccc(-n3ccc(=O)[nH]c3=O)cc2)nn1)Nc1ccc(Cl)c(Cl)c1 [Compound 52, N-(3,4-dichlorophenyl)-2-(1-(4-(2,4-dioxo-3,4-dihydropyrimidin-1(2H)-yl)phenyl)-1H-1,2,3-triazol-4-yl)acetamide]	1
O=C(Cc1cn(-c2ccc(-n3ccc(=O)[nH]c3=O)cc2)nn1)NCc1ccc(Cl)c(Cl)c1 [Compound 53]	1.67
O=C(Cc1ccc(Cl)c(Cl)c1)NCc1cn(-c2ccc(-n3ccc(=O)[nH]c3=O)cc2)nn1 [Compound 55, 2-(3,4-Dichlorophenyl)-N-((1-(4-(2,4-dioxo-3,4-dihydropyrimidin-1(2H)-yl)phenyl)-1H-1,2,3-triazol-4-yl)methyl)acetamide]	1.05
O=c1ccn(-c2ccc(-n3cc(-c4ccc(Cl)c(Cl)c4)nn3)cc2)c(=O)[nH]1 [Compound 56, 1-(4-(4-(3,4-Dichlorophenyl)-1H-1,2,3-triazol-1-yl)phenyl)pyrimidine-2,4(1H,3H)-dione]	1.39
